In ChEMBL document CHEMBL1201861, “Genomics of Drug Sensitity in Cancer screening data, Wellcome Trust Sanger Institute”:

Assays:
[1] = test system: DG-75; assay: cells; type: functional, cell-based; settings: Homo sapiens;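 also: growth inhibition of DG-75 cells, read out with a cell viability assay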
Description: SANGER: Inhibition of human DG-75 cell growth in a cell viability assay.

[2] = test system: DMS-153; assay: cells; type: functional, cell-based; settings: Homo sapiens
Description: SANGER: Inhibition of human DMS-153 cell growth in a cell viability assay.

[3] = test system: EB-3; assay: cells; type: functional, cell-based; settings: Homo sapiens;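 also: human EB-3 cells, growth inhibition read out via a cell viability assay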
Description: SANGER: Inhibition of human EB-3 cell growth in a cell viability assay.

[4] = test system: EVSA-T; assay: cells; type: functional, cell-based, Homo sapiens; settings: Homo sapiens, EVSA-T;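 also: growth inhibition of EVSA-T cells, read out with a cell viability assay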
Description: SANGER: Inhibition of human EVSA-T cell growth in a cell viability assay.

[5] = test system: EW-22; assay: cells; type: functional, cell-based; settings: Homo sapiens;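 also: growth inhibition of the EW-22 cell line, measured with a cell viability readout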
Description: SANGER: Inhibition of human EW-22 cell growth in a cell viability assay.

[6] = test system: GDM-1; assay: cells; type: functional, cell-based; settings: Homo sapiens;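 also: cell viability readout used to measure growth inhibition of human GDM-1 cells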
Description: SANGER: Inhibition of human GDM-1 cell growth in a cell viability assay.

[7] = test system: IM-9; assay: SANGER: Inhibition of human IM-9 cell growth in a cell viability assay.; type: functional, cell-based
[8] = test system: K052; assay: cells; type: functional, cell-based; settings: Homo sapiens;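 also: Read-out from a cell viability assay, IC50 reflecting suppression of K052 cell growth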
Description: SANGER: Inhibition of human K052 cell growth in a cell viability assay.

[9] = test system: Kasumi 1; assay: cells; type: functional, cell-based; settings: Homo sapiens;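 also: growth inhibition of human Kasumi-1 cells, read out by a cell viability assay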
Description: SANGER: Inhibition of human KASUMI-1 cell growth in a cell viability assay.

[10] = test system: KMS-12-PE; assay: cells; type: functional, cell-based; settings: Homo sapiens;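 also: growth inhibition of human KMS-12-PE cells, measured with a cell viability assay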
Description: SANGER: Inhibition of human KMS-12-PE cell growth in a cell viability assay.

[11] = test system: LB647-SCLC; assay: cells; type: functional, cell-based; settings: Homo sapiens;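 also: cell growth inhibition, read out by a viability assay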
Description: SANGER: Inhibition of human LB647-SCLC cell growth in a cell viability assay.

[12] = test system: LOUCY; assay: cells; type: functional, cell-based; settings: Homo sapiens;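 also: growth inhibition of human LOUCY cells, read out with a cell viability assay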
Description: SANGER: Inhibition of human LOUCY cell growth in a cell viability assay.

[13] = test system: LU-165; assay: cells; type: functional, cell-based; settings: Homo sapiens
Description: SANGER: Inhibition of human LU-165 cell growth in a cell viability assay.

[14] = test system: MHH-CALL-2; assay: cells; type: functional, cell-based; settings: Homo sapiens;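 also: growth inhibition of the cell line, read out in a cell viability assay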
Description: SANGER: Inhibition of human MHH-CALL-2 cell growth in a cell viability assay.

[15] = test system: MONO-MAC-6; assay: cells; type: functional, cell-based; settings: Homo sapiens;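 also: cell viability assay measuring growth inhibition of human MONO-MAC-6 cells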
Description: SANGER: Inhibition of human MONO-MAC-6 cell growth in a cell viability assay.

[16] = test system: NB1; assay: cells; type: functional, cell-based; settings: Homo sapiens;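 also: reduction of NB1 cell proliferation, read out with a viability assay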
Description: SANGER: Inhibition of human NB1 cell growth in a cell viability assay.

[17] = test system: NCI-H1417; assay: cells; type: functional, cell-based; settings: Homo sapiens;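 also: human NCI-H1417 cells, growth inhibition determined with a cell viability readout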
Description: SANGER: Inhibition of human NCI-H1417 cell growth in a cell viability assay.

[18] = test system: NCI-H1436; assay: cells; type: functional, cell-based; settings: Homo sapiens;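 also: growth suppression of human NCI-H1436 cells, determined with a cell viability readout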
Description: SANGER: Inhibition of human NCI-H1436 cell growth in a cell viability assay.

[19] = test system: NCI-H1522; assay: cells; type: functional, cell-based; settings: Homo sapiens;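 also: growth inhibition of NCI-H1522 cells, read out with a cell viability assay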
Description: SANGER: Inhibition of human NCI-H1522 cell growth in a cell viability assay.

[20] = test system: NCI-H1694; assay: cells; type: functional, cell-based; settings: Homo sapiens;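 also: cell viability assay measuring inhibition of growth in human NCI-H1694 cells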
Description: SANGER: Inhibition of human NCI-H1694 cell growth in a cell viability assay.

[21] = test system: NCI-H2081; assay: cells; type: functional, cell-based; settings: Homo sapiens;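 also: growth inhibition of human NCI-H2081 cells, read out with a cell viability assay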
Description: SANGER: Inhibition of human NCI-H2081 cell growth in a cell viability assay.

[22] = test system: NCI-H2141; assay: cells; type: functional, cell-based; settings: Homo sapiens;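 also: growth inhibition of human NCI-H2141 cells, read out with a cell viability assay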
Description: SANGER: Inhibition of human NCI-H2141 cell growth in a cell viability assay.

[23] = test system: NCI-H2171; assay: cells; type: functional, cell-based; settings: Homo sapiens;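 also: growth inhibition of human NCI-H2171 cells, read out by a cell viability assay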
Description: SANGER: Inhibition of human NCI-H2171 cell growth in a cell viability assay.

[24] = test system: NCI-H345; assay: cells; type: functional, cell-based; settings: Homo sapiens;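 also: growth inhibition of NCI-H345 cells measured with a cell viability assay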
Description: SANGER: Inhibition of human NCI-H345 cell growth in a cell viability assay.

[25] = test system: NCI-H64; assay: cells; type: functional, cell-based; settings: Homo sapiens;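 also: growth inhibition of NCI-H64 cells, read out with a cell viability assay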
Description: SANGER: Inhibition of human NCI-H64 cell growth in a cell viability assay.

[26] = test system: NCI-H748; assay: cells; type: functional, cell-based; settings: Homo sapiens;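 also: growth inhibition of NCI-H748 cells, measured by a cell viability assay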
Description: SANGER: Inhibition of human NCI-H748 cell growth in a cell viability assay.

[27] = test system: NCI-H889; assay: cells; type: functional, cell-based; settings: Homo sapiens;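 also: cell growth inhibition of the cell line, read out with a viability assay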
Description: SANGER: Inhibition of human NCI-H889 cell growth in a cell viability assay.

[28] = test system: REH; assay: cells; type: functional, cell-based; settings: Homo sapiens;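 also: growth inhibition of REH cells determined with a cell viability read-out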
Description: SANGER: Inhibition of human REH cell growth in a cell viability assay.

[29] = test system: RPMI 8402; assay: SANGER: Inhibition of human RPMI-8402 cell growth in a cell viability assay.; type: functional, cell-based
[30] = test system: SCC-3; assay: cells; type: functional, cell-based; settings: Homo sapiens;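 also: cell viability assay measuring inhibition of SCC-3 cell growth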
Description: SANGER: Inhibition of human SCC-3 cell growth in a cell viability assay.

[31] = test system: SCLC-21H; assay: cells; type: functional, cell-based; settings: Homo sapiens;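 also: growth inhibition of cultured human SCLC-21H cells, read out with a cell viability assay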
Description: SANGER: Inhibition of human SCLC-21H cell growth in a cell viability assay.

[32] = test system: SIMA; assay: cells; type: functional, cell-based, Homo sapiens; settings: Homo sapiens, SIMA;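 also: growth inhibition of SIMA cells, measured with a cell viability readout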
Description: SANGER: Inhibition of human SIMA cell growth in a cell viability assay.

[33] = test system: SK-MM-2; assay: cells; type: functional, cell-based; settings: Homo sapiens;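 also: growth inhibition of human SK-MM-2 cells, read out with a cell viability assay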
Description: SANGER: Inhibition of human SK-MM-2 cell growth in a cell viability assay.

[34] = test system: ST486; assay: SANGER: Inhibition of human ST486 cell growth in a cell viability assay.; type: functional, cell-based
[35] = test system: SUP-T1; assay: cells; type: functional, cell-based; settings: Homo sapiens;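 also: growth inhibition of human SUP-T1 cells, read out as cell viability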
Description: SANGER: Inhibition of human SUP-T1 cell growth in a cell viability assay.

[36] = test system: ARH-77; assay: cells; type: functional, cell-based; settings: Homo sapiens;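 also: growth inhibition of ARH-77 cells, read out by a cell viability assay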
Description: SANGER: Inhibition of human ARH-77 cell growth in a cell viability assay.

[37] = test system: BC-3; assay: cells; type: functional, cell-based; settings: Homo sapiens;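 also: cell viability assay measuring growth inhibition of human BC-3 cells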
Description: SANGER: Inhibition of human BC-3 cell growth in a cell viability assay.

[38] = test system: BL-41; assay: cells; type: functional, cell-based; settings: Homo sapiens;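 also: growth inhibition of human BL-41 cells, read out with a cell viability assay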
Description: SANGER: Inhibition of human BL-41 cell growth in a cell viability assay.

[39] = test system: CA46; assay: cells; type: functional, cell-based; settings: Homo sapiens;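 also: growth inhibition of human CA46 cells, read out by a cell viability assay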
Description: SANGER: Inhibition of human CA46 cell growth in a cell viability assay.

[40] = test system: CAL-148; assay: cells; type: functional, cell-based; settings: Homo sapiens
Description: SANGER: Inhibition of human CAL-148 cell growth in a cell viability assay.

[41] = test system: TE-15; assay: cells; type: functional, cell-based; settings: Homo sapiens;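 also: cell viability readout of growth inhibition in TE-15 cells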
Description: SANGER: Inhibition of human TE-15 cell growth in a cell viability assay.

[42] = test system: TE-441-T; assay: cells; type: functional, cell-based; settings: Homo sapiens
Description: SANGER: Inhibition of human TE-441-T cell growth in a cell viability assay.

[43] = test system: THP-1; assay: cells; type: functional, cell-based; settings: Homo sapiens;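 also: growth inhibition of THP-1 cells, read out via a cell viability assay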
Description: SANGER: Inhibition of human THP-1 cell growth in a cell viability assay.

[44] = test system: CHP-126; assay: cells; type: functional, cell-based; settings: Homo sapiens
Description: SANGER: Inhibition of human CHP-126 cell growth in a cell viability assay.

CN1CCN(CCOc2cc(OC3CCOCC3)c3c(Nc4c(Cl)ccc5c4OCO5)ncnc3c2)CC1 [SARACATINIB]
IC50 [1]: > 2 µM | IC50 [2]: > 2 µM | IC50 [3]: > 2 µM | IC50 [4]: > 2 µM | IC50 [5]: > 2 µM | IC50 [6]: > 2 µM | IC50 [7]: > 2 µM | IC50 [8]: > 2 µM | IC50 [9]: > 2 µM | IC50 [10]: > 2 µM | IC50 [11]: > 2 µM | IC50 [12]: > 2 µM | IC50 [13]: > 2 µM | IC50 [14]: > 2 µM | IC50 [15]: > 2 µM | IC50 [16]: > 2 µM | IC50 [17]: > 2 µM | IC50 [18]: 0.79 µM | IC50 [19]: > 2 µM | IC50 [20]: > 2 µM | IC50 [21]: > 2 µM | IC50 [22]: > 2 µM | IC50 [23]: > 2 µM | IC50 [24]: > 2 µM | IC50 [25]: > 2 µM | IC50 [26]: > 2 µM | IC50 [27]: > 2 µM | IC50 [28]: > 2 µM | IC50 [29]: > 2 µM | IC50 [30]: > 2 µM | IC50 [31]: > 2 µM | IC50 [32]: > 2 µM | IC50 [33]: > 2 µM | IC50 [34]: 1.46 µM | IC50 [35]: > 2 µM | IC50 [36]: > 2 µM | IC50 [37]: > 2 µM | IC50 [38]: > 2 µM | IC50 [39]: > 2 µM | IC50 [40]: > 2 µM | IC50 [41]: 0.274 µM | IC50 [42]: > 2 µM | IC50 [43]: > 2 µM | IC50 [44]: > 2 µM

CO[C@H]1C[C@@H]2CC[C@@H](C)[C@@](O)(O2)C(=O)C(=O)N2CCCC[C@H]2C(=O)O[C@H]([C@H](C)C[C@@H]2CC[C@@H](O)[C@H](OC)C2)CC(=O)[C@H](C)/C=C(\C)[C@@H](O)[C@@H](OC)C(=O)[C@H](C)C[C@H](C)/C=C/C=C/C=C/1C [SIROLIMUS]
IC50 [1]: > 0.1 µM | IC50 [2]: > 0.1 µM | IC50 [3]: 0.0527 µM | IC50 [4]: > 0.1 µM | IC50 [5]: > 0.1 µM | IC50 [6]: > 0.1 µM | IC50 [7]: > 0.1 µM | IC50 [8]: > 0.1 µM | IC50 [9]: > 0.1 µM | IC50 [10]: > 0.1 µM | IC50 [11]: > 0.1 µM | IC50 [12]: > 0.1 µM | IC50 [13]: > 0.1 µM | IC50 [14]: > 0.1 µM | IC50 [15]: > 0.1 µM | IC50 [16]: > 0.1 µM | IC50 [17]: > 0.1 µM | IC50 [18]: > 0.1 µM | IC50 [19]: > 0.1 µM | IC50 [20]: > 0.1 µM | IC50 [21]: > 0.1 µM | IC50 [22]: > 0.1 µM | IC50 [23]: > 0.1 µM | IC50 [24]: > 0.1 µM | IC50 [25]: > 0.1 µM | IC50 [26]: > 0.1 µM | IC50 [27]: > 0.1 µM | IC50 [28]: > 0.1 µM | IC50 [29]: 0.0218 µM | IC50 [30]: > 0.1 µM | IC50 [31]: > 0.1 µM | IC50 [32]: > 0.1 µM | IC50 [33]: > 0.1 µM | IC50 [34]: > 0.1 µM | IC50 [35]: > 0.1 µM | IC50 [36]: 0.0528 µM | IC50 [37]: 0.0992 µM | IC50 [38]: 0.0437 µM | IC50 [39]: > 0.1 µM | IC50 [40]: > 0.1 µM | IC50 [41]: 0.00136 µM | IC50 [42]: > 0.1 µM | IC50 [43]: > 0.1 µM | IC50 [44]: > 0.1 µM

CNC(=O)c1cc(Oc2ccc(NC(=O)Nc3ccc(Cl)c(C(F)(F)F)c3)cc2)ccn1 [SORAFENIB]
IC50 [1]: > 4 µM | IC50 [2]: > 4 µM | IC50 [3]: > 4 µM | IC50 [4]: > 4 µM | IC50 [5]: > 4 µM | IC50 [6]: 0.907 µM | IC50 [7]: > 4 µM | IC50 [8]: 2.75 µM | IC50 [9]: > 4 µM | IC50 [10]: > 4 µM | IC50 [11]: > 4 µM | IC50 [12]: > 4 µM | IC50 [13]: > 4 µM | IC50 [14]: > 4 µM | IC50 [15]: 0.00418 µM | IC50 [16]: > 4 µM | IC50 [17]: > 4 µM | IC50 [18]: 1.22 µM | IC50 [19]: > 4 µM | IC50 [20]: > 4 µM | IC50 [21]: > 4 µM | IC50 [22]: > 4 µM | IC50 [23]: 2.4 µM | IC50 [24]: > 4 µM | IC50 [25]: > 4 µM | IC50 [26]: > 4 µM | IC50 [27]: > 4 µM | IC50 [28]: > 4 µM | IC50 [29]: > 4 µM | IC50 [30]: > 4 µM | IC50 [31]: > 4 µM | IC50 [32]: > 4 µM | IC50 [33]: > 4 µM | IC50 [34]: 3.84 µM | IC50 [35]: > 4 µM | IC50 [36]: > 4 µM | IC50 [37]: > 4 µM | IC50 [38]: > 4 µM | IC50 [39]: > 4 µM | IC50 [40]: > 4 µM | IC50 [41]: > 4 µM | IC50 [42]: > 4 µM | IC50 [43]: > 4 µM | IC50 [44]: > 4 µM
